Experimental data published in ChEMBL document CHEMBL3507680, “University of Dundee, Gates Library screen for HepG2 cell viability”.

Assay: Human HepG2 cell viability assay in 384 well format
Format: toxicity, cell-based
Design: dose 125 nL, time 70.5 hour; cytotoxicity at 70.5 h: concentration not given beside the values
Details: HepG2 cells, read-out: Inhibition

| Compound | cytotoxicity at 70.5 h [%] |
| --- | --- |
| O=C(c1ccccn1)N1C[C@@H]2CC[C@H](C1)N(C(=O)CCN1CCCC1)C2 | 38 |
| O=S1(=O)CCC(n2nc(COc3ccccc3)nc2-c2cnccn2)C1 (centres undefined) | -1.94 |
| c1ccc(CCN2CCc3c(ncn3C3CC3)C2)nc1 | -3.33 |
| Cc1ccc(C(=O)N2C[C@H]3CNC[C@H]3C2)cn1 | 25.5 |
| COc1cc(OC)nc(N2CCCC(c3nccn3CCN(C)C)C2)n1 (centres undefined) | 30.4 |
| CN1Cc2ccccc2CC2(CCN(CCO)CC2)C1=O | 18 |
| CC(C)=CCN1C[C@H]2CC[C@@H]1CN(C(=O)Cc1c(C)nc(C)[nH]c1=O)C2 | 1.03 |
| Cc1cc2n(n1)CC(CNC1CCN(c3ccccn3)CC1)CN2 (centres undefined) | -0.0737 |
| Cn1cnc2c1CCN(Cc1cccc(C(N)=O)c1)C2 | -7.77 |
| CCc1nc(C2CCCN2C(=O)c2cnc[nH]2)no1 (centres undefined) | -7.25 |
| Cc1nccc(N(C)Cc2ncc(-c3ccccc3C(=O)O)s2)n1 | -1.97 |
| O=C(c1ccc(O)nc1)N1CCN(C(=O)c2ccc(F)cc2F)CC1 | -7.11 |
| COc1cccc(C2C3=C(COC3=O)Nc3[nH]nc(C)c32)c1OC (centres undefined) | -3.26 |
| CC1c2ncc(CNC(=O)C3CC3)n2CCN1Cc1ccccn1 (centres undefined) | 0.0373 |
| COCC1CN(Cc2ccncc2)Cc2nnn(CC3CC3)c21 (centres undefined) | -10.7 |
| CN(C)C(=O)N[C@@H]1CN(S(C)(=O)=O)[C@@H]2CCCO[C@@H]21 | 47.9 |
| Cc1cc(C(=O)Cn2cnnc2[S+](C)[O-])cc(C)c1F (centres undefined) | 33.6 |
| COc1ccccc1N1CCN(C(=O)CCn2nnnc2C)CC1(C)C | 19.3 |
| COc1ccc(OCC(O)CN2CCN(c3nccs3)CC2)cc1 (centres undefined) | -2.04 |
| COc1ccc(CN2CC3(CCNCC3)CCC2=O)c(F)c1F | 15.3 |
| CCc1c(O)nc2nc(N3CCOCC3)nn2c1C | -11 |
| Cc1nc(CN2CCCN(C(=O)COCC3CC3)CC2)cs1 | -2.01 |

| Compound | cytotoxicity at 70.5 h [%] |
| --- | --- |
| c1cc2c(cc1CN1CC[C@H]3CO[C@H](CN4CCCC4)[C@H]3C1)OCO2 | -1.72 |
| Cc1occc1C(=O)N1CC[C@H]2C[C@@H](c3nnc(C4CC4)o3)O[C@@H]2C1 | -12 |
| FC(F)(F)c1cc(C2CCN(c3cnccn3)CC2)n2ccnc2n1 | -5.4 |
| Cc1nc(N2CCCN(c3ncccn3)CC2)c2cnn(C)c2n1 | -3.77 |
| Cc1cc(S(=O)(=O)N2C[C@H](C3CC3)[C@@H](N)C2)c(C)s1 | -6.03 |
| CCc1cnc2c(c1NCc1ccc(OC)cc1)c(=O)n(C)c(=O)n2C | 3.22 |
| N#Cc1cccnc1N1CCC2(CCCN(C3CCOCC3)C2=O)C1 (centres undefined) | -3.03 |
| CN(C(=O)C1CSCN1S(=O)(=O)c1ccc(F)cc1)C1CC1 (centres undefined) | -9.65 |
| Cc1nc(-c2ccncc2)nc(N(C)CCc2ccncc2)c1C | 4.43 |
| O=C(CCc1ccsc1)N(Cc1ccccn1)C1CC1 | -2.46 |
| COc1c(CNCC(O)c2cccc(F)c2)c(C(C)C)nn1C (centres undefined) | 2.55 |
| C=C(C)CN1CCCC(CNS(C)(=O)=O)C1 (centres undefined) | -4.35 |
| CCN1CCNC(=O)C12CCN(C(=O)c1ccccn1)CC2 | 18.3 |
| Cc1cnn(CCNCc2ccc(C#N)cc2F)c1 | -13.7 |
| Cc1occc1C(=O)N1CCC2(CC1)CC(OCc1ccccn1)CO2 (centres undefined) | 11.9 |
| CC(C)Oc1cccc(C(O)CNC(=O)Nc2cccs2)c1 (centres undefined) | -4.72 |
| CCc1cc(N2CCC(NC3CCOCC3)CC2)nc(N(C)C)n1 | 25.7 |
| Cc1cc(C)c(CNc2ncnc3c2cnn3C)c(=O)[nH]1 | -11.1 |
| CS(=O)(=O)CCSCc1cccc2cccnc12 | -4.91 |
| Cc1ccc(CN2CCN(c3ccc(F)cn3)CC2=O)cc1C | -3.51 |
| CC(C)N1CCC(CNC(=O)COc2ccc(F)cc2F)C1 (centres undefined) | 4.12 |
| Cc1nc(-c2nnc[nH]2)sc1C(=O)N1CCCC1CC(C)(C)C (centres undefined) | -5.06 |
